Reference: patent US20250339409A1, “USES OF PAN BET INHIBITORS” (VYNE THERAPEUTICS INC., priority 2021, published 2025)
Values after ≈ are worked out from the molar mass of the structure shown. Where two headings read alike, the source gives them in different places.

What was measured:
[1] = Homogeneity of BETi1 dispersions in NaCMC/saline by light microscopy; format: physicochemical; conditions: suspensions in NaCMC solutions
Description: BETi1 is dispersed in 0.5% Sodium Carboxymethyl Cellulose (NaCMC) solution in NaCl saline (0.9% NaCl in water) to receive 4 mg/gram dispersion. […] All dispersions are thermally sterilized.
BETi suspensions at 4 mg/g (0.4%), at 0.4 mg/g (0.04%) and at 0.04 mg/g (0.004%) (Table 38) were prepared in NaCMC solutions as set out in Experimental Method N. The homogeneity (including absence of aggregates of solid particles) of the dispersion was analyzed and confirmed by light microscopy as shown in FIG. 14A-C. […] In the sample at 0.04 mg/g mainly larger crystals were observed, since the smaller ones were probably dissolved.

[2] = Solubility of BETi1 in water (HPLC) and in solvents (visual observation); format: physicochemical
Description: The resulting sample, still containing solid BETi1, was filtered and analyzed by HPLC for assay of BETi1 in solution. Solubility of BETi in water was determined to be about 0.005 mg/gram or 0.5 mg/100 mL water (1 ml=1 g) using HPLC (Table 41A).
To characterize the solubility of BETi in other solvents, about 5 mg of BETi1 was weighed into a 2 ml glass vial. 20 μL aliquots of each of the solvent listed in Table 41B was added to dissolve the drug substance at 25° C. Vortex and sonication were applied to assist dissolution. Approximate solubility was determined by visual observation and reported in […]

[3] = Toxicokinetics in dogs after intra-articular injection: plasma concentrations; format: in vivo, Beagle dogs; conditions: dog; for AUC(0-t) / Cmax / Tmax / concentration at 1 h / concentration at 2 h / concentration at 4 h / concentration at 8 h / concentration at 24 h / concentration at 336 h / concentration at 504 h / concentration at 672 h / concentration at 4 weeks: Beagle, plasma; for AUC(0-t): read-out: Plasma AUC0-672 h; for concentration at 1 h / concentration at 2 h / concentration at 4 h / concentration at 8 h / concentration at 24 h / concentration at 336 h / concentration at 504 h / concentration at 672 h / concentration at 4 weeks: other: intra-articular injection; for concentration at 1 h / concentration at 2 h / concentration at 4 h / concentration at 8 h / concentration at 24 h / concentration at 336 h / concentration at 504 h / concentration at 672 h: read-out: Plasma concentration of BETi1; for concentration at 4 weeks: read-out: plasma level at four weeks post-treatment
[4] = both sexes, 7.5 mg/animal, 7.5 mg intra-articular
[5] = both sexes, 75 mg/animal, 75 mg intra-articular
[6] = both sexes, 150 mg/animal, 150 mg intra-articular

For `Cn1cc(-c2cccc(O)c2Oc2ccccc2)c2cc[nH]c2c1=O` [BETi1], the “aggregates of API particles in dispersions” value [1] was “no visible aggregates of API particles”, the solubility ([2]; isopropanol) was “slightly soluble” and the solubility ([2]; organic solvent or mixture, thermodynamic from solid, 1,4-Dioxane, 25° C., visual observation, read-out: Approximate solubility) was 104 mg/mL (≈ 313 mM). The solubility ([2]; organic solvent or mixture, thermodynamic from solid, Acetone, 25° C., visual observation, read-out: Approximate solubility) was 15 mg/mL (≈ 45.1 mM), the solubility ([2]; organic solvent or mixture, thermodynamic from solid, Acetonitrile, 25° C., visual observation, read-out: Approximate solubility) was less than 5 mg/mL and the solubility ([2]; organic solvent or mixture, thermodynamic from solid, Anisole, 25° C., visual observation, read-out: Approximate solubility) was less than 5 mg/mL. It also gave a solubility ([2]; organic solvent or mixture, thermodynamic from solid, Dichloromethane, 25° C., visual observation, read-out: Approximate solubility) of less than 5 mg/mL, a solubility ([2]; organic solvent or mixture, thermodynamic from solid, Ethanol, 25° C., visual observation, read-out: Approximate solubility) of 12 mg/mL (≈ 36.1 mM) and a solubility ([2]; organic solvent or mixture, thermodynamic from solid, Ethyl acetate, 25° C., visual observation, read-out: Approximate solubility) of less than 5 mg/mL. It also gave a solubility ([2]; organic solvent or mixture, thermodynamic from solid, Heptane, 25° C., visual observation, read-out: Approximate solubility) of less than 5 mg/mL, a solubility ([2]; organic solvent or mixture, thermodynamic from solid, IPAc, 25° C., visual observation, read-out: Approximate solubility) of less than 5 mg/mL and a solubility ([2]; organic solvent or mixture, thermodynamic from solid, Isopropanol, 25° C., visual observation, read-out: Approximate solubility) of 6 mg/mL (≈ 18.1 mM). It also gave a solubility ([2]; organic solvent or mixture, thermodynamic from solid, Methanol, 25° C., visual observation, read-out: Approximate solubility) of 21 mg/mL (≈ 63.2 mM), a solubility ([2]; organic solvent or mixture, thermodynamic from solid, Methyl ethyl ketone, 25° C., visual observation, read-out: Approximate solubility) of 12 mg/mL (≈ 36.1 mM) and a solubility ([2]; organic solvent or mixture, thermodynamic from solid, Tetrahydrofuran, 25° C., visual observation, read-out: Approximate solubility) of 104 mg/mL (≈ 313 mM). The solubility ([2]; organic solvent or mixture, thermodynamic from solid, t-Butyl methyl ether, 25° C., visual observation, read-out: Approximate solubility) was less than 5 mg/mL, the solubility ([2]; polyethylene glycol 400, methanol, ethanol, acetone and methyl ethyl ketone) was “sparingly soluble” and the solubility ([2]; polyethylene glycol 400, organic solvent or mixture, read-out: solubility in polyethylene glycol 400) was roughly 20 mg/mL (≈ 60.2 mM). For the same compound, the solubility ([2]; tetrahydrofurane and 1,4-dioxane) was “freely soluble”, the solubility at 5 h ([2]; thermodynamic from solid, Water, 25° C., HPLC, read-out: Approximate solubility) was 0.005 mg/mL (≈ 0.015 mM) and the solubility ([2]; water, ethyl acetate, acetonitrile, IPAc, t-Butyl methyl ether, heptane, dichloromethane or anisole) was “insoluble”. For the same compound, the solubility at 5 h ([2]; water, as stated in the dog study, read-out: water solubility limit) was 0.05 mg/mL (≈ 0.15 mM), the AUC(0-t) ([3]; 7.5 mg/animal, Female, Study Day 1) was 472 ng·h/mL and the Cmax ([3]; 7.5 mg/animal, Female, Study Day 1, read-out: Plasma Cmax) was 37.6 ng/mL. It also gave a Tmax ([3]; 7.5 mg/animal, Female, Study Day 1, read-out: Plasma Tmax) of 1.5 h, an AUC(0-t) ([3]; 7.5 mg/animal, Male, Study Day 1) of 390 ng·h/mL and a Cmax ([3]; 7.5 mg/animal, Male, Study Day 1, read-out: Plasma Cmax) of 32.1 ng/mL. The Tmax ([3]; 7.5 mg/animal, Male, Study Day 1, read-out: Plasma Tmax) was 4 h, the AUC(0-t) ([3]; 75 mg/animal, Female, Study Day 1) was 3760 ng·h/mL and the Cmax ([3]; 75 mg/animal, Female, Study Day 1, read-out: Plasma Cmax) was 56.6 ng/mL. It also gave a Tmax ([3]; 75 mg/animal, Female, Study Day 1, read-out: Plasma Tmax) of 2 h, an AUC(0-t) ([3]; 75 mg/animal, Male, Study Day 1) of 3070 ng·h/mL and a Cmax ([3]; 75 mg/animal, Male, Study Day 1, read-out: Plasma Cmax) of 50.2 ng/mL. It also gave a Tmax ([3]; 75 mg/animal, Male, Study Day 1, read-out: Plasma Tmax) of 2 h, an AUC(0-t) ([3]; 150 mg/animal, Female, Study Day 1) of 5990 ng·h/mL and a Cmax ([3]; 150 mg/animal, Female, Study Day 1, read-out: Plasma Cmax) of 52.9 ng/mL. It also gave a Tmax ([3]; 150 mg/animal, Female, Study Day 1, read-out: Plasma Tmax) of 5 h, an AUC(0-t) ([3]; 150 mg/animal, Male, Study Day 1) of 3810 ng·h/mL and a Cmax ([3]; 150 mg/animal, Male, Study Day 1, read-out: Plasma Cmax) of 48.8 ng/mL. It also gave a Tmax ([3]; 150 mg/animal, Male, Study Day 1, read-out: Plasma Tmax) of 2 h, a concentration at 1 h [3, 4] of 29.6 ng/mL and a concentration at 2 h [3, 4] of 32.6 ng/mL. The concentration at 4 h [3, 4] was 26.1 ng/mL, the concentration at 8 h [3, 4] was 15.9 ng/mL and the concentration at 24 h [3, 4] was 2.02 ng/mL. It also gave a concentration at 336 h [3, 4] of 0 ng/mL, a concentration at 504 h [3, 4] of 0 ng/mL and a concentration at 672 h [3, 4] of 0 ng/mL. For the same compound, the concentration at 1 h [3, 5] was 49.1 ng/mL, the concentration at 2 h [3, 5] was 53.4 ng/mL and the concentration at 4 h [3, 5] was 39.4 ng/mL. For the same compound, the concentration at 8 h [3, 5] was 38.1 ng/mL, the concentration at 24 h [3, 5] was 13.5 ng/mL and the concentration at 336 h [3, 5] was 1.95 ng/mL. It also gave a concentration at 504 h [3, 5] of 0.835 ng/mL, a concentration at 672 h [3, 5] of 0.505 ng/mL and a concentration at 1 h [3, 6] of 42.2 ng/mL. It also gave a concentration at 2 h [3, 6] of 48.8 ng/mL, a concentration at 4 h [3, 6] of 35.8 ng/mL and a concentration at 8 h [3, 6] of 48.2 ng/mL. For the same compound, the concentration at 24 h [3, 6] was 20.9 ng/mL, the concentration at 336 h [3, 6] was 4.72 ng/mL and the concentration at 504 h [3, 6] was 2.19 ng/mL. The concentration at 672 h [3, 6] was 1.72 ng/mL, the concentration at 4 weeks ([3]; both sexes, 75 mg/animal, intra-articular, 75 mg) was 2 nM and the concentration at 4 weeks ([3]; both sexes, 150 mg/animal, intra-articular, 150 mg) was 5 nM. For the same compound, the Tmax ([3]; both sexes, intra-articular, calculated, read-out: Tmax, plasma (converted)) was roughly 120 h, the Cmax ([3]; both sexes, intra-articular, read-out: Cmax, plasma) was 50 ng/mL and the “clearance indicated by plasma levels” value ([3]; intra-articular) was “rapid clearance with a reduction being seen after 4 hours”. For the same compound, the “plasma AUC lower compared to synovial levels” value ([3]; intra-articular) was roughly 2000 × and the “plasma Cmax lower compared to synovial levels” value ([3]; intra-articular) was roughly 1000 ×.
